Measured values taken from patent US7244557B2, “Method of screening modulators of Nod1 signaling” (Regents of the University of Michigan, priority 2003, dated 2007).

Target: T1, TLR2 (Homo sapiens, UniProt O60603)
T1 construct: expressed in transfected cells; host or cells: HEK293T
Assay: NF-κB activation assay, cells expressing TLR2 or TLR2 with TLR1 and/or TLR6
Format: cell-based
Settings: 1 μg/ml
Protocol: A) Structure of purified PGN fraction from B. subtilis (GM3P) and synthetic PGN-related compounds used in the study. B) Structure of MDP and four copies of GlcNAc-MurNAc with attached L-Ala-γ-D-Gln (4 mer) are indicated by closed and dotted boxes, respectively. C) The ability of cells were transfected with 0.3 ng pcDNA3-NOD1-Flag, 0.1 ng pcDNA3-Nod2 (NOD2) or vector control and reporter pBxIV-luc and pEF-BOS-β-gal plasmids to activate NF-κB. D) The ability of synthetic peptides, iE-DAP and iQ-DAP to stimulate NF-κB activation in the presence of control vector (−) and plasmids encoding NOD1 wild-type, mutant NOD1 lacking LRRs (NOD1ΔLRR) and NOD2. E) The ability of iE-DAP, iQ-DAP and sBLP (1 μg/ml) to activate NF-κB.
Reagents. LPS from S. typhimurium, intact and alkaline-detoxified LPS from E. coli O55:B5 as well as purified lipid A preparations of E. coli F583, MDP, DAP and dsRNA were obtained from Sigma-Aldrich (St. Louis, Mo.). PGN from S. aureus was from Fluka-Chemie (Buchs, Germany). Palmitoyl-Cys ((RS)-2,3-di(palmitoyloxy)-propyl)-Ala-Gly) (sBLP), was obtained from Bachem (Torrance, Calif.). The tetrameric form of the disaccharide dipeptide was described previously (Inohara et al., J. Biol. Chem. 278:5509 [2003]). iE-DAP and iQ-DAP, M3P and M4P were synthesized as described (Kitaura et al., J. Med. Chem. 25:335 [1982]) with small modification. Purification of PGN from B. subtilis 168 and C. flaccumfaciens with hydrolases, Cellosyl or recombinant AtlE (amidase domain) and the fractionation and purification of reduced B. subtilis PGN digested with Cellosyl were performed as previously described (Heilman et al., Mol. Microbiol. 24:1013 [1997]; Atrih et al., J. Bact. 181:3956 [1999]). Removal of proteins and reduction of LPS fraction. E. coli O55:B5 LPS (Sigma) was treated with proteinase K at 37° C. for 12 hr to digest contaminating proteins. […] The amino acid composition of E. coli O55:B5 LPS was determined using AccQ·Tag amino acid analysis system (Waters, Milford, Mass.) after hydrolysis at 110° C. for 24 hr. […]

T1 sequence (O60603 21-784, species assumed): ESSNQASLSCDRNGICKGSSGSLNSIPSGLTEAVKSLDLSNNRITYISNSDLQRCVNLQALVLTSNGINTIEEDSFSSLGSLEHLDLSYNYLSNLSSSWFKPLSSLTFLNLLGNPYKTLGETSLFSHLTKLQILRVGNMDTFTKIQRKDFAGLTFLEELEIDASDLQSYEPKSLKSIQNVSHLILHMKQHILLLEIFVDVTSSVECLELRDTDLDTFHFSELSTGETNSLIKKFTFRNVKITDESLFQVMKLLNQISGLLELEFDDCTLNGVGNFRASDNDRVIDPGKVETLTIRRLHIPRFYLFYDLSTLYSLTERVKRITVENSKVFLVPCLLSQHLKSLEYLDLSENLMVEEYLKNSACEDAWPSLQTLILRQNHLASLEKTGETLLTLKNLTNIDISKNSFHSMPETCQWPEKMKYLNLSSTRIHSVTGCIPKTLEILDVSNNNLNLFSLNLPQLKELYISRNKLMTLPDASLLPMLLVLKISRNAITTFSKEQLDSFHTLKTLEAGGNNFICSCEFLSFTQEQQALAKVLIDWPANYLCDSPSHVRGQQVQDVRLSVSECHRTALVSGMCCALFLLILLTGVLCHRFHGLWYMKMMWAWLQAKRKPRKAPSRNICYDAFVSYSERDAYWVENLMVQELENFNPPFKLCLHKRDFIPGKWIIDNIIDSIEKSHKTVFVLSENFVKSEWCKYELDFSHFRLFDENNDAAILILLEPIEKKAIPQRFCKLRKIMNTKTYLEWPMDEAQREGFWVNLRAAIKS

Substance | NF-κB activation via TLR2 or TLR2 co-expressed with TLR1 and/or TLR6
Palmitoyl-Cys ((RS)-2,3-di(palmitoyloxy)-propyl)-Ala-Gly) [synthetic lipoprotein] | activated TLR2
γ-D-Gln-DAP [iQ-DAP] | not TLR2 or TLR2 co-expressed with TLR1 and/or TLR6
γ-D-glutamy-meso-diaminopimelic acid [iE-DAP] | not TLR2 or TLR2 co-expressed with TLR1 and/or TLR6
